Measurements published in patent US20070117743A1, “New antitumoral compounds” (priority 2003, published 2007).
Where two headings read alike, the source gives them in different places. Where a SMILES comes first, the peptide text is derived from it. Bridges are numbered along the chain shown (N, C = ends). [ ]: non-standard residue; d: D form. The star is where a group is joined. d(aIle) = CC[C@H](C)[C@@H](N)C(=O)O; d(aThr) = C[C@@H](O)[C@@H](N)C(=O)O; Hexanoyl(5-Me) = CC(C)CCCC(=O)*; Orn = NCCC[C@H](N)C(=O)O; Dhb = C/C=C(\N)C(=O)O

How the values were obtained:
Assay type in all cases: cell-based, human
[1] = tested on: HeLa; test: SRB colorimetric assay of cell growth and viability, HeLa; conditions: 48 hours exposure; for CC50: read-out: LC50 HELA
[2] = tested on: SK-MEL-28; test: SRB colorimetric assay of cell growth and viability, SK-MEL-28; conditions: 48 hours exposure; for CC50: read-out: LC50 MEL-28
[3] = tested on: LNCaP; test: SRB colorimetric assay of cell growth and viability, LNCaP; conditions: 48 hours exposure; for CC50: read-out: LC50 LN-caP
[4] = tested on: IGROV-1; test: SRB colorimetric assay of cell growth and viability, IGROV-1; conditions: 48 hours exposure
[5] = tested on: LoVo; test: SRB colorimetric assay of cell growth and viability, LoVo; conditions: 48 hours exposure, SRB
[6] = tested on: HT-29; test: SRB colorimetric assay of cell growth and viability, HT-29; conditions: 48 hours exposure; for GI50: read-out: GI50 HT-29; for CC50: read-out: LC50 HT-29
[7] = tested on: LoVo-Dox; test: SRB colorimetric assay of cell growth and viability, LoVo-Dox; conditions: 48 hours exposure; for CC50: read-out: LC50 LOVO-DOX
Method in brief: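 48 h continuous exposure, 10 to 10^−8 μg/mL; 5×10^3 cells/well, 18 h attachment; TCA fix, 0.4% SRB, OD 490 nm. Triplicates; GI, TGI, LC derived.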

[8] = tested on: PANC-1; test: SRB colorimetric assay of cell growth and viability, PANC-1; conditions: 48 hours exposure; for CC50: read-out: LC50 PANC-1
[9] = tested on: A-549; test: SRB colorimetric assay of cell growth and viability, A-549; conditions: 48 hours exposure; for GI50: read-out: GI50 A-549; for CC50: read-out: LC50 A-549
[10] = tested on: HeLa-APL; test: SRB colorimetric assay of cell growth and viability, HeLa-APL; conditions: 48 hours exposure; for CC50: read-out: LC50 HELA-APL
[11] = tested on: SK-BR-3; test: SRB colorimetric assay of cell growth and viability, SK-BR-3; conditions: 48 hours exposure
[12] = tested on: IGROV-ET; test: SRB colorimetric assay of cell growth and viability, IGROV-ET; conditions: 48 hours exposure; for CC50: read-out: LC50 IGROV-ET
[13] = tested on: DU-145; test: SRB colorimetric assay of cell growth and viability, DU-145; conditions: 48 hours exposure
[14] = tested on: K-562; test: SRB colorimetric assay of cell growth and viability, K-562; conditions: K-562, 48 hours exposure; for CC50: read-out: LC50 K-562

## C/C=C1\NC(=O)[C@H](Cc2ccc(Cl)c(Cl)c2)NC(=O)[C@@H](C(C)C)NC(=O)[C@@H]([C@@H](C)CC)NC(=O)[C@H](NC(=O)[C@H](NC(=O)[C@H](CCCN)NC(=O)[C@H]2CCCN2C(=O)[C@H](NC(=O)[C@@H](NC(=O)[C@@H](NC(=O)[C@H](NC(=O)CC[C@@H](C)CC)C(C)C)[C@@H](C)O)C(C)C)C(C)C)[C@@H](C)CC)[C@@H](C)OC(=O)[C@H](C(C)C)NC1=O [Compound 70, [Phe(3,4-Cl2)^3, (4S)-MeHex^14]-KF]
[1]; SRB
  GI50: 0.125 µM
  TGI HELA: 2.22E−07 Molar
  CC50: 0.397 µM
[2]; SRB
  GI50: 0.12 µM
  TGI MEL-28: 2.39E−07 Molar
  CC50: 0.475 µM
[3]; SRB
  TGI LN-caP: 2.08E−07 Molar
  CC50: 6.47 µM
[3]; SRB, read-out: GI50 LN-caP
  GI50: 0.0666 µM
[4]; SRB
  GI50: 0.182 µM
  LC50 (concentration causing 50% net cell killing): 0.487 µM
  TGI IGROV: 2.97E−07 Molar
[5]
  GI50: 0.0685 µM
  TGI LOVO: 4.11E−07 Molar
[5]; read-out: LC50 LOVO
  CC50: 1.73 µM
[6]; SRB
  TGI HT-29: 2.13E−07 Molar
  GI50: 0.111 µM
  CC50: 0.412 µM
[7]; SRB
  GI50: 0.0285 µM
  TGI LOVO-DOX: 8.15E−08 Molar
  CC50: 0.612 µM
[8]; SRB
  GI50: 1 µM
  TGI PANC-1: 1.85E−06 Molar
  CC50: 3.42 µM
[9]; SRB
  TGI A-549: 3.32E−07 Molar
  GI50: 0.183 µM
  CC50: 0.604 µM
[10]; SRB
  GI50: 0.259 µM
  TGI HELA-APL: 7.63E−07 Molar
  CC50: 2.24 µM
[11]; SRB
  GI50: 0.0528 µM
  LC50: 0.299 µM
  TGI SK-BR-3: 1.18E−08 Molar
[12]; SRB
  GI50: 0.112 µM
  TGI IGROV-ET: 2.09E−07 Molar
  CC50: 0.387 µM
[13]; SRB
  GI50: 0.142 µM
  LC50 (concentration causing 50% net cell kill): 0.465 µM
  TGI DU-145: 2.57E−07 Molar

## C/C=C1\NC(=O)[C@H](Cc2ccccc2)NC(=O)[C@@H](C(C)C)NC(=O)[C@@H]([C@@H](C)CC)NC(=O)[C@H](NC(=O)[C@H](NC(=O)[C@H](CCCN)NC(=O)[C@H]2CCCN2C(=O)[C@H](NC(=O)[C@@H](NC(=O)[C@H](CCCN)NC(=O)[C@H](NC(=O)CCCC(C)C)C(C)C)C(C)C)C(C)C)[C@@H](C)CC)[C@@H](C)OC(=O)[C@H](C(C)C)NC1=O [Compound 116, [Orn^12]-KF] ({Hexanoyl(5-Me)}-[dV][Orn]V[dV][dP][Orn][d(aIle)][d(aThr)][d(aIle)][dV]F[Dhb]V; ester 8-C)
[1]; HELA
  GI50: 1.54 µM
  TGI HELA: 3.35E−06 Molar
  CC50: 6.71 µM
[2]; MEL-28
  GI50: 4.32 µM
  TGI MEL-28: 6.71E−06 Molar
  CC50: 6.71 µM
[3]; LN-caP
  GI50: 1.54 µM
  TGI LN-caP: 3.10E−06 Molar
  CC50: 6.24 µM
[4]; IGROV
  GI50: 2.05 µM
  LC50 (concentration causing 50% net cell killing): 6.71 µM
  TGI IGROV: 3.86E−06 Molar
[6]; HT-29
  TGI HT-29: 3.88E−06 Molar
  GI50: 2.24 µM
  CC50: 6.71 µM
[7]; LOVO-DOX
  GI50: 1.94 µM
  TGI LOVO-DOX: 3.71E−06 Molar
  CC50: 6.71 µM
[8]; PANC-1
  GI50: 6.08 µM
  TGI PANC-1: 6.71E−06 Molar
  CC50: 6.71 µM
[9]; A-549
  TGI A-549: 6.71E−06 Molar
  GI50: 6.71 µM
  CC50: 6.71 µM
[10]; HELA-APL
  GI50: 3 µM
  TGI HELA-APL: 6.71E−06 Molar
  CC50: 6.71 µM
[14]
  GI50: 0.919 µM
  TGI K-562: 2.34E−06 Molar
  CC50: 5.94 µM
[11]; SK-BR-3
  GI50: 1.45 µM
  LC50: 5.51 µM
  TGI SK-BR-3: 2.82E−06 Molar
[12]; IGROV-ET
  GI50: 1.87 µM
  TGI IGROV-ET: 3.23E−06 Molar
  CC50: 5.55 µM
[13]; DU-145
  GI50: 3.32 µM
  LC50 (concentration causing 50% net cell kill): 6.71 µM
  TGI DU-145: 6.71E−06 Molar

## C/C=C1\NC(=O)[C@H](Cc2ccccc2)NC(=O)[C@@H](C(C)C)NC(=O)[C@@H]([C@@H](C)CC)NC(=O)[C@H](NC(=O)[C@H](NC(=O)[C@H](CCCN)NC(=O)[C@H]2CCCN2C(=O)[C@H](NC(=O)[C@@H](NC(=O)[C@@H]2CCCN2C(=O)[C@H](NC(=O)CCCC(C)C)C(C)C)C(C)C)C(C)C)[C@@H](C)CC)[C@@H](C)OC(=O)[C@H](C(C)C)NC1=O [Compound 117, [Pro^12]-KF] ({Hexanoyl(5-Me)}-[dV]PV[dV][dP][Orn][d(aIle)][d(aThr)][d(aIle)][dV]F[Dhb]V; ester 8-C)
[1]; HELA
  GI50: 1.53 µM
  TGI HELA: 2.89E−06 Molar
  CC50: 5.46 µM
[2]; MEL-28
  GI50: 2 µM
  TGI MEL-28: 4.26E−06 Molar
  CC50: 6.78 µM
[3]; LN-caP
  GI50: 1.51 µM
  TGI LN-caP: 2.87E−06 Molar
  CC50: 5.45 µM
[4]; IGROV
  GI50: 1.97 µM
  LC50 (concentration causing 50% net cell killing): 6.78 µM
  TGI IGROV: 3.70E−06 Molar
[6]; HT-29
  TGI HT-29: 3.38E−06 Molar
  GI50: 0.0176 µM
  CC50: ≥ 6.49 µM
[7]; LOVO-DOX
  GI50: 1.83 µM
  TGI LOVO-DOX: 3.59E−06 Molar
  CC50: 6.78 µM
[8]; PANC-1
  GI50: 3.88 µM
  TGI PANC-1: 6.78E−06 Molar
  CC50: 6.78 µM
[9]; A-549
  TGI A-549: 6.78E−06 Molar
  GI50: 3.29 µM
  CC50: 6.78 µM
[10]; HELA-APL
  GI50: 1.84 µM
  TGI HELA-APL: 3.98E−06 Molar
  CC50: 6.78 µM
[14]
  GI50: 0.841 µM
  TGI K-562: 2.10E−06 Molar
  CC50: 5.22 µM
[11]; SK-BR-3
  GI50: 1.55 µM
  LC50: 5.62 µM
  TGI SK-BR-3: 2.96E−06 Molar
[12]; IGROV-ET
  GI50: 1.82 µM
  TGI IGROV-ET: 3.11E−06 Molar
  CC50: 5.34 µM
[13]; DU-145
  GI50: 2.41 µM
  LC50 (concentration causing 50% net cell kill): 6.78 µM
  TGI DU-145: 5.43E−06 Molar

## C/C=C1\NC(=O)[C@H](Cc2ccccc2)NC(=O)[C@@H](C(C)C)NC(=O)[C@@H]([C@@H](C)CC)NC(=O)[C@H](NC(=O)[C@H](NC(=O)[C@H](CCCN)NC(=O)[C@H]2CCCN2C(=O)[C@H](NC(=O)[C@@H](NC(=O)[C@@H](NC(=O)[C@@H](CCCN)NC(=O)CCCC(C)C)[C@@H](C)O)C(C)C)C(C)C)[C@@H](C)CC)[C@@H](C)OC(=O)[C@H](C(C)C)NC1=O [Compound 118, [D-Orn^13]-KF]
[1]; HELA
  GI50: 1.57 µM
  TGI HELA: 3.30E−06 Molar
  CC50: 6.7 µM
[2]; MEL-28
  GI50: 1.49 µM
  TGI MEL-28: 2.88E−06 Molar
  CC50: 5.55 µM
[3]; LN-caP
  GI50: 2.87 µM
  TGI LN-caP: 6.70E−06 Molar
  CC50: 6.7 µM
[4]; IGROV
  GI50: 1.45 µM
  LC50 (concentration causing 50% net cell killing): 5.24 µM
  TGI IGROV: 2.76E−06 Molar
[6]; HT-29
  TGI HT-29: 2.84E−06 Molar
  GI50: 1.2 µM
  CC50: 6.7 µM
[7]; LOVO-DOX
  GI50: 1.59 µM
  TGI LOVO-DOX: 3.28E−06 Molar
  CC50: 6.7 µM
[8]; PANC-1
  GI50: 2.09 µM
  TGI PANC-1: 4.74E−06 Molar
  CC50: 6.7 µM
[9]; A-549
  TGI A-549: 4.21E−06 Molar
  GI50: 1.96 µM
  CC50: 6.7 µM
[10]; HELA-APL
  GI50: 1.86 µM
  TGI HELA-APL: 4.15E−06 Molar
  CC50: 6.7 µM
[14]
  GI50: 1.6 µM
  TGI K-562: 3.92E−06 Molar
  CC50: 6.7 µM
[11]; SK-BR-3
  GI50: 0.851 µM
  LC50: 4.42 µM
  TGI SK-BR-3: 1.94E−06 Molar
[12]; IGROV-ET
  GI50: 1.85 µM
  TGI IGROV-ET: 3.74E−06 Molar
  CC50: 6.7 µM
[13]; DU-145
  GI50: 1.86 µM
  LC50 (concentration causing 50% net cell kill): 6.7 µM
  TGI DU-145: 3.84E−06 Molar
